Measurements published in patent US20050197343A1, “Utilization of heteroarene carboxamide as dopamine-d3 ligands for the treatment of cns diseases” (priority 2002, published 2005).
pEC50, pKi: −log10 of the molar value.

Key:
α1 receptors = experiment: competitive experiment with the α1 selective radio ligand [3H]Prazosin; settings: read-out: Ki values α1 (footnote d); pα1; competitive experiment with [3H]Prazosin
D3 receptor [1] = molecular target: T1, D3 receptor (Homo sapiens, UniProt P35462); experiment: radio ligand binding assay, CHO cell membrane homogenates, [3H]Spiperon, D3; set-up: expressed in transfected cells; host or cells: CHO cells (membrane homogenates); settings: for pKi: hD3, average of 2-9 experiments in triplicate, read-out: Ki-values D3
T1 sequence (P35462 whole entry): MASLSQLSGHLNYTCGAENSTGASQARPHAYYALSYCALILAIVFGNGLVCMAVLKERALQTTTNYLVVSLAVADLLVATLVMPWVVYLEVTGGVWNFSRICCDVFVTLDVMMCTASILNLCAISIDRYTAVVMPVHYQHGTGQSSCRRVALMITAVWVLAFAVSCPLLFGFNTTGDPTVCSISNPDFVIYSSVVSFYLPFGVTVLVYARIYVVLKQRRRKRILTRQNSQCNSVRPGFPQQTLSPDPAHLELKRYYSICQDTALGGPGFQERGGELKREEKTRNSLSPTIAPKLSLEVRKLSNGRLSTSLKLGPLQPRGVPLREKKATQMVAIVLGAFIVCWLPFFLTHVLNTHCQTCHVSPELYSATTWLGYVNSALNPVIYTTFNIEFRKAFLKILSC
Method: (§1) The biological activities of the compounds of the invention were determined in radio ligand binding assays.

D3 receptor [2] = molecular target: T1, D3 receptor; experiment: mitogenesis assay (intrinsic activity); assay type: cell-based
Description: D3 ligands may show agonistic, antagonistic or partial-agonistic activity on the D3 receptor. The respective intrinsic activities of the compounds of the invention may be measured in mitogenesis assays as described in literature (Hübner, H. et al. J. Med. Chem. 2000, 43, 4563-4569, and Löber, S. Bioorg. Med. Chem. Lett. 2002, 12.17, 2377-2380). Depending on the pathophysiology of the underlying disease, a stronger agonistic, stronger antagonistic or partial-agonistic activity may be desirable. The present invention therefore permits an excellent fine-tuning of the desired activity.
Tests to determine the intrinsic activity of the compounds of the examples were carried out in a mitogenesis assay as described in literature (Hübner, H. et al. J. Med. Chem. 2000, 43, 4563-4569; Löber, S. Bioorg. Med. Chem. Lett. 2002, 12.17, 2377-2380).

human D4.4 receptor = molecular target: T2, human D4.4 receptor (Homo sapiens, UniProt P21917); experiment: radio ligand binding assay, CHO cell membrane homogenates, [3H]Spiperon, D4.4; settings: hD4.4; average of 2-9 experiments in triplicate
T2 construct: expressed in transfected cells; host or cells: CHO cells (membrane homogenates)
T2 sequence (P21917 1-419): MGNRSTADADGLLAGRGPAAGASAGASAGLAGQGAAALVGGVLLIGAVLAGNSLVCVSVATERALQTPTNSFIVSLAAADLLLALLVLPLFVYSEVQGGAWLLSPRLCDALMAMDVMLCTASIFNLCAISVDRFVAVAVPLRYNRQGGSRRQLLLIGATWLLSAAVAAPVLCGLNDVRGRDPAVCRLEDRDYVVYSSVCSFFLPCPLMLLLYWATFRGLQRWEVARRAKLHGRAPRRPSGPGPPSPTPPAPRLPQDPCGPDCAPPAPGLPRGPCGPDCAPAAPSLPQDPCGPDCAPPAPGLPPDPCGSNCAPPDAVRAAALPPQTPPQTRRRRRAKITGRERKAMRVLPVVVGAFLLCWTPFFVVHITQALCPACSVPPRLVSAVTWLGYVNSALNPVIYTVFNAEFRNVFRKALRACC
Method: as §1

human D2short receptor = molecular target: T3, human D2short receptor (Homo sapiens, UniProt P14416); experiment: radio ligand binding assay, CHO cell membrane homogenates, [3H]Spiperon, D2short; settings: hD2short; average of 2-9 experiments in triplicate
T3 construct: expressed in transfected cells; host or cells: CHO cells (membrane homogenates)
T3 sequence (P14416 1-414 isoform P14416-2): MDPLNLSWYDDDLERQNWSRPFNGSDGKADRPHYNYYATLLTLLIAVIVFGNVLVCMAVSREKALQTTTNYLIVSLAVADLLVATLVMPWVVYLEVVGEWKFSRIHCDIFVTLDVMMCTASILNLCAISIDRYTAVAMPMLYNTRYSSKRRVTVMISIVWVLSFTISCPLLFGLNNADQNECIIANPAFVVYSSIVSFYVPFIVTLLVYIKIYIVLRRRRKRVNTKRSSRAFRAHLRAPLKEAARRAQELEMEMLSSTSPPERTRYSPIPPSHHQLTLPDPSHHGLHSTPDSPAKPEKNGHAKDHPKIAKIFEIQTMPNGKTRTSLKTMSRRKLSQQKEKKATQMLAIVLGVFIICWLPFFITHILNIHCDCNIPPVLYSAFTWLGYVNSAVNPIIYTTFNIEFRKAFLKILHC
Method: as §1

[3] = molecular target: T4, serotonin receptor 5-HT1A (Sus scrofa, UniProt A0A4X1UTF5); experiment: radio ligand binding, pig cortex membrane preparations, [3H]8-OH-DPAT; settings: read-out: Ki values 5-HT1A; p5-HT1A; [3H]8-OH-DPAT; average of 2 to 6 experiments
T4 sequence (A0A4X1UTF5 1-422): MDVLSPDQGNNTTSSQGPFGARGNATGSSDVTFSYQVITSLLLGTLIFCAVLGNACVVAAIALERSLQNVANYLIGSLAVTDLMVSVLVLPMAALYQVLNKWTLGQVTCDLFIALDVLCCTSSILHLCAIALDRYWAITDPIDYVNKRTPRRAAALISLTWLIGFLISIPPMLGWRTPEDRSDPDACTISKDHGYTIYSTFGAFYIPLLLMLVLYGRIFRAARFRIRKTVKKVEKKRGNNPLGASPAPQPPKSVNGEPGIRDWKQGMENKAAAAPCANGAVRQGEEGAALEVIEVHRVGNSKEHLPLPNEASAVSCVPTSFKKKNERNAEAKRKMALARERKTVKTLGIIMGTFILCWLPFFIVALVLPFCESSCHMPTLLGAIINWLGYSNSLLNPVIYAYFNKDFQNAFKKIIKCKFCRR

serotonin receptor 5-HT2 = molecular target: T5, serotonin receptor 5-HT2 (Sus scrofa, UniProt P50129); experiment: radio ligand binding, pig cortex membrane preparations, [3H]Ketanserin with 10 μM Prazosin; settings: p5-HT2; simultaneous incubation with 10 μM of Prazosin
T5 construct: cortex membrane preparations of a pig; from tissue; host or cells: pig cortex
T5 sequence (P50129 whole entry): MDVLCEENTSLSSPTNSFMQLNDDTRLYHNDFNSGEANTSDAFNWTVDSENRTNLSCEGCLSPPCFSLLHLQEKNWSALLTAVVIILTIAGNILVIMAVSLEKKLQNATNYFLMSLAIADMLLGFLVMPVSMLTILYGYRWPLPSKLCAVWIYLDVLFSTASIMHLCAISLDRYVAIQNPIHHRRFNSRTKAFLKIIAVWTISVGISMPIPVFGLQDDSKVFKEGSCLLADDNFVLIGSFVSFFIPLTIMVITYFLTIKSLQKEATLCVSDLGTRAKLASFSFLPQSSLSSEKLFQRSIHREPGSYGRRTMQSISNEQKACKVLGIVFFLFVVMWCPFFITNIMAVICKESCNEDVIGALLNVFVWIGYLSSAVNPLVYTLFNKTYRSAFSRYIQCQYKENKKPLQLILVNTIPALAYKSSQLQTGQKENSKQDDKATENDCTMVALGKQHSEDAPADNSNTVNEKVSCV

D1 receptor = molecular target: T6, D1 receptor (Sus scrofa, UniProt P50130); experiment: radio ligand binding assay, D1 receptor, pig striatum membrane homogenates, [3H]SCH 23390; settings: pD1; average of 2-9 experiments in triplicate
T6 construct: native membrane homogenates obtained from the striatum of a pig; from tissue; host or cells: pig striatum
T6 sequence (P50130 whole entry): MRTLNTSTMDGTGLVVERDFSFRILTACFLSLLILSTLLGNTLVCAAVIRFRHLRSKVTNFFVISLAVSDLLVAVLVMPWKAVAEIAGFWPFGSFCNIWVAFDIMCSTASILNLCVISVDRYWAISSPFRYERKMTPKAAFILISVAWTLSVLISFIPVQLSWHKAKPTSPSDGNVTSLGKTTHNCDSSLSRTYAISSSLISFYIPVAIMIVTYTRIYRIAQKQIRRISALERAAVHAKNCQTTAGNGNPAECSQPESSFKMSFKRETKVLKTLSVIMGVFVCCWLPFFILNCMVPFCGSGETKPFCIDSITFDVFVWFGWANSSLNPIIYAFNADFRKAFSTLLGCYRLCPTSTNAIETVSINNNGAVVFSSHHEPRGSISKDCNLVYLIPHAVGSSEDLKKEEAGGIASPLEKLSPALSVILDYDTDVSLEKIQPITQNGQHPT
Method: as §1

human D2long receptor = molecular target: T7, human D2long receptor (Homo sapiens, UniProt P14416); experiment: radio ligand binding assay, CHO cell membrane homogenates, [3H]Spiperon, D2long; settings: hD2long; average of 2-9 experiments in triplicate
T7 construct: expressed in transfected cells; host or cells: CHO cells (membrane homogenates)
T7 sequence (P14416 whole entry): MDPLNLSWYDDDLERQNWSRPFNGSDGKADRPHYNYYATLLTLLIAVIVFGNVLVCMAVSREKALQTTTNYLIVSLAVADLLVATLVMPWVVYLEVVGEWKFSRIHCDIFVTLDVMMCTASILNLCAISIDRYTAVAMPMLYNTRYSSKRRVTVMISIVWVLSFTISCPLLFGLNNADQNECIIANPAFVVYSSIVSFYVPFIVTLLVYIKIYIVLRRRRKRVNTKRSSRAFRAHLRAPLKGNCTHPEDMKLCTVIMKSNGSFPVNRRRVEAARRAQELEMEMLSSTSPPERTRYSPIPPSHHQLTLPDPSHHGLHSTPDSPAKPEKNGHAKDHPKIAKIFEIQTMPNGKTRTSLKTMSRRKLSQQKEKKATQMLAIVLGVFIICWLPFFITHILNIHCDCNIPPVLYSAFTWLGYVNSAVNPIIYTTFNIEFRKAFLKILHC
Method: as §1

pEC50 (D3 receptor [2]; curve calculation of the concentration-activity test) | partial agonistic activity, % of the maximum receptor stimulation (D3 receptor [2]; maximum triggered by the full agonist Quinpirol as reference) [%] | SMILES | pKi (α1 receptors) | pKi (D3 receptor [1]) | pKi (human D4.4 receptor) | pKi (human D2short receptor) | pKi [3] | D3 selectivity D2long/D3 (D3 receptor [1]; ratio of Ki values) | D3 selectivity D2short/D3 (D3 receptor [1]; ratio of Ki values) | D3 selectivity D4.4/D3 (D3 receptor [1]; ratio of Ki values) | pKi (serotonin receptor 5-HT2) | pKi (D1 receptor) | pKi (human D2long receptor)
9.42 | 49 | COc1ccccc1N1CCN(CCCCNC(=O)c2cc3ccccc3s2)CC1 [Example 1, N-4-(4-(2-methoxyphenyl)piperazine-1-yl)butyl-2-benzo[b]thiophenylcarbamide] | 8.19 | 9.24 to 9.64 | – | – | – | – | – | – | – | – | –
– | – | O=C(NCCCCN1CCN(c2cccc(Cl)c2Cl)CC1)c1cc2ccccc2[te]1 [Example 9, N-4-(4-(2,3-dichlorophenyl)piperazine-1-yl)butyl-2-benzo[b]tellurophenylcarbamide] | 7.00 | 9.26 | 6.82 | 7.32 | 6.89 | 170 | 87 | 270 | 6.14 | 5.85 | 7.04
